Here are results for 14 compounds from patent US10654834B2 (Venenum Biodesign, LLC, priority 2016, dated 2020).

The target of one assay is T1, mouse TGR5 receptor (Mus musculus, UniProt Q80SS6).
T1 construct: host or cells: HEK293-EBNA (293 c18, ATCC CRL10852)
T1 sequence (Q80SS6 1-329): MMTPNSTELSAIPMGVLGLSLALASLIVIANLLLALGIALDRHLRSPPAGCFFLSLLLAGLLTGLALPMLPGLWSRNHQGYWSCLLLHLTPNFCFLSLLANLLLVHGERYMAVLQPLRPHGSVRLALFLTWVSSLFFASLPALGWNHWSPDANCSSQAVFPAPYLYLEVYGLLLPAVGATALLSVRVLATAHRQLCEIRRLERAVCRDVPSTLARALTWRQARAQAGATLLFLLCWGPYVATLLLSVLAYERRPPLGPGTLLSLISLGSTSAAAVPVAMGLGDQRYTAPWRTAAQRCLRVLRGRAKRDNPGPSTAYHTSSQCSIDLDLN
Description: Mouse TGR5 HTRF cAMP production assay (HEK293-EBNA cells, Cisbio cAMP HiRange kit). As to conditions: HEK293-EBNA cells overexpressing mouse TGR5, HTRF cAMP assay. It is filed as cell-based. The procedure:
Mouse TGR5 cAMP Production Assay
Compounds of the present invention were evaluated for their ability to induce cAMP production in HEK-EBNA cells overexpressing the mouse TGR5 receptor. Human embryonic kidney cells (HEK293-EBNA) stably expressing mouse TGR5 receptor were established using the following procedure. Specifically, a commercially obtained gene encoding mouse TGR5 (accession number BC116914) from Thermo Scientific (Waltham, Mass.) was cloned into an episomal expression vector. The resulting expression plasmid was then transfected into 293 c18 (ATCC® CRL10852™) cells, which express the Epstein-Barr virus nuclear antigen EBNA1 and can support the replication of episomal vectors. Selection for the plasmid was maintained with Hygromycin B. Cells were cultured and maintained in DMEM (Sigma; cat #6429) supplemented with 10% Fetal Bovine Serum, 1% penicillin/streptomycin, 2 mM L-alanine L-glutamine (GlutaMax), and 250 μg/mL Hygromycin.
We developed two cAMP production assays.
(ii) HTRF cAMP Production Assay
In this second cAMP production assay, the cAMP production was measured in 384-well low volume plates (Greiner; cat #784075) using the Cisbio™ cAMP HiRange HTRF Assay Kit (CisBio) according to the manufacturer's protocol.
Briefly, compounds were initially diluted in 100% DMSO (12-point serial dilution by half logs) in a 96-well plate and then were further diluted 1:50 in PBS containing 10 mM HEPES. 5 μL were transferred to the 384-well assay plate in duplicate. HEK293-EBNA cells stably overexpressing mouse TGR5 were harvested using non-enzymatic cell dissociation buffer (Sigma), spun down, then resuspended in serum-free DMEM with 500 μM IBMX at a density of 500,000 cells/mL. 5 μL of cell suspension was transferred to each well of the 384-well assay plate already containing compound. The plate was covered and incubated at room temperature for 1 hour. The d2-cAMP and anti-cAMP Ab-cryptate stock solutions were prepared as per kit instructions. Then 5 μL of each conjugate (d2 and cryptate) were added to each well of the assay plate. The plate was covered and incubated at room temperature for one (1) hour. The plate was read on an Envision™ plate reader (PerkinElmer).
(§1) In Table 52, EC50 values for both human and mouse cells were determined according to the TGR5 cAMP assays described above. […]

The target in another assay is T2, human TGR5 receptor (Homo sapiens, UniProt Q8TDU6).
T2 construct: host or cells: CHO-K1 (hTGR5-CHO)
T2 sequence (Q8TDU6 1-330): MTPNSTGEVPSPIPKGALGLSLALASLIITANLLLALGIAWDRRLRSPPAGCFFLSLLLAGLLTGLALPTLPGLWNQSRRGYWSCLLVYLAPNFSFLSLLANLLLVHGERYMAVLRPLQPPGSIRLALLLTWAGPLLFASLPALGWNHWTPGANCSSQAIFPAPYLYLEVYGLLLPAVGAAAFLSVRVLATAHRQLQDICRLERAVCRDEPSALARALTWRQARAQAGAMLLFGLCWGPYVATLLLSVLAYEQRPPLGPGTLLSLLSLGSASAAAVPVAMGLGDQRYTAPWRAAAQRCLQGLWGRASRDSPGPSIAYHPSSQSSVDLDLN
Description: Human TGR5 cAMP production assay (hTGR5-CHO cells, DiscoveRx cAMP XS+ kit). It is filed as cell-based. Conditions: luminescent cAMP assay, read-out: Human TGR5 Lum. cAMP Activity (EC50). The procedure:
Human TGR5 cAMP Production Assay
Compounds of the present invention were evaluated for their ability to induce cAMP production using CHO-K1 cells overexpressing the human TGR5 receptor.
CHO-K1 cells stably expressing human TGR5 receptor (accession number NM_001077194.1) (hTGR5) (i.e., hTGR5-CHO cells) were purchased from DiscoveRx Corporation (Fremont, Calif.). hTGR5-CHO cells were grown in Ham's F-12 media supplemented with 10% Fetal Bovine Serum, 1% Penicillin-Streptomycin, 2 mM L-Alanine L-Glutamine (Glutamax), and 800 μg/mL Geneticin selection. The cAMP production assay was performed using DiscoveRx's cAMP XS+ kit (Catalog No. 90-0075XL) following the manufacturer's recommended protocol. Briefly, hTGR5-CHO cells were harvested using non-enzymatic cell dissociation buffer (Sigma-Aldrich, St. Louis, Mo.) and 1×10^6 cells were combined in Phosphate-Buffered Saline (PBS) to a final volume of 496 μL to which 4 μL of 125 mM IBMX (Sigma-Aldrich, St. Louis, Mo.) was added. 500 μL of cAMP antibody solution was added to the harvested cells and incubated at room temperature for 20 min.
Test compounds were serially diluted (half-log dilutions) in DMSO and then further diluted 1:50 in PBS, 10 mM HEPES buffer. 2 μL of serially diluted compound was added to a 384-well low volume plate (Greiner; cat #784075) and centrifuged briefly. 2 μl of the cell/cAMP antibody mixture was then added to each compound-containing well and allowed to incubate at room temperature for one hour. Following incubation, the XS+ kits' ED/Lysis/CL Substrate Working Solution was prepared following the manufacturer's recommended protocol and 4 μL was added to each well of the plate. The plate was then incubated for one hour at room temperature. Following incubation, 4 μL of Enzyme Acceptor reagent was added to the plate and allowed to incubate overnight at room temperature. Luminescent signal was then detected using the Viewlux instrument (Perkin-Elmer, Waltham, Mass.).
Human and Mouse TGR5 cAMP
as §1
In general terms: Cyclic AMP is a second messenger, typically raised through Gs and lowered through Gi signalling.

The term EC50 denotes the concentration at which the effect is half-maximal.

The structures appear in SMILES notation.

Consider `N#Cc1ccc(CCNC(=O)[C@@H]2CCCN2c2cc(-c3ccc(CN4CCNCC4)cc3)nc(C(F)(F)F)n2)cc1` [Compound 187, (S)-N-(4-cyanophenethyl)-1-(6-(4-(piperazin-1-ylmethyl)phenyl)-2-(trifluoromethyl)pyrimidin-4-yl)pyrrolidine-2-carboxamide], for which the EC50 at mouse TGR5 receptor was in the range of 100 to 999 nM; at human TGR5 receptor it was 1000 to 30000 nM.
In the same order, the values of `N#Cc1ccc(CCNC(=O)[C@@H]2CCCN2c2cc(-c3ccc(CCC(=O)O)cc3)nc(C(F)(F)F)n2)cc1` [Compound 188, (S)-3-(4-(6-(2-((4-cyanophenethyl)carbamoyl)pyrrolidin-1-yl)-2-(trifluoromethyl)pyrimidin-4-yl)phenyl)propanoic acid] are below 100 nM and 100 to 999 nM.
In the case of `N#Cc1ccc(CCNC(=O)[C@@H]2CCCN2c2cc(-c3ccc(CCC(=O)NCCS(=O)(=O)O)cc3)nc(C(F)(F)F)n2)cc1` [Compound 189, (S)-2-(3-(4-(6-(2-((4-cyanophenethyl)carbamoyl)pyrrolidin-1-yl)-2-(trifluoromethyl)pyrimidin-4-yl)phenyl)propanamido)ethanesulfonic acid], the EC50 at mouse TGR5 receptor and at human TGR5 receptor was below 100 nM each time.
Turning to `N#Cc1ccc(CCNC(=O)[C@@H]2CCCN2c2cc(-c3cccc(CCC(=O)NCCS(=O)(=O)O)c3)nc(C(F)(F)F)n2)cc1` [Compound 190, (S)-2-(3-(3-(6-(2-((4-cyanophenethyl)-carbamoyl)pyrrolidin-1-yl)-2-(trifluoromethyl)pyrimidin-4-yl)phenyl)-propanamido)ethanesulfonic acid], the results for the EC50 on mouse TGR5 receptor and at human TGR5 receptor were below 100 nM and 1000 to 30000 nM, respectively.
`N#Cc1ccc(CCNC(=O)[C@@H]2CCCN2c2cc(-c3ccc(CNC(=O)NCCS(=O)(=O)O)cc3)nc(C(F)(F)F)n2)cc1` [Compound 191, (S)-2-(3-(4-(6-(2-((4-cyanophenethyl)carbamoyl)pyrrolidin-1-yl)-2-(trifluoromethyl)pyrimidin-4-yl)benzyl)ureido)ethanesulfonic acid]: the EC50 on mouse TGR5 receptor was below 100 nM; on human TGR5 receptor, 100 to 999 nM.
On the same counts, the results for `N#Cc1ccc(CCNC(=O)[C@@H]2CCCN2c2cc(-c3ccc(CNC(=O)NCS(=O)(=O)O)cc3)nc(C(F)(F)F)n2)cc1` [Compound 192, (S)-(3-(4-(6-(2-((4-cyanophenethyl)carbamoyl)pyrrolidin-1-yl)-2-(trifluoromethyl)pyrimidin-4-yl)benzyl)ureido)methanesulfonic acid] are below 100 nM and 100 to 999 nM.
`N#Cc1ccc(CCNC(=O)[C@@H]2CCCN2c2cc(-c3ccc(CNC(=O)NCCCS(=O)(=O)O)cc3)nc(C(F)(F)F)n2)cc1` [Compound 193, (S)-3-(3-(4-(6-(2-((4-cyanophenethyl)carbamoyl)pyrrolidin-1-yl)-2-(trifluoromethyl)pyrimidin-4-yl)benzyl)ureido)propane-1-sulfonic acid]: the EC50 on mouse TGR5 receptor was below 100 nM; at human TGR5 receptor, 100 to 999 nM.
As to `N#Cc1ccc(CCNC(=O)[C@@H]2CCCN2c2cc(-c3ccc(CCNC(=O)NCCS(=O)(=O)O)cc3)nc(C(F)(F)F)n2)cc1` [Compound 194, (S)-2-(3-(4-(6-(2-((4-cyanophenethyl)carbamoyl)pyrrolidin-1-yl)-2-(trifluoromethyl)pyrimidin-4-yl)phenethyl)ureido)ethanesulfonic acid], the EC50 on mouse TGR5 receptor was below 100 nM; at human TGR5 receptor it was 100 to 999 nM.
With `N#Cc1ccc(CCNC(=O)[C@@H]2CCCN2c2cc(-c3ccc(CCNC(=O)NCCCS(=O)(=O)O)cc3)nc(C(F)(F)F)n2)cc1` [Compound 195, (S)-3-(3-(4-(6-(2-((4-cyanophenethyl)carbamoyl)pyrrolidin-1-yl)-2-(trifluoromethyl)pyrimidin-4-yl)phenethyl)ureido)propane-1-sulfonic acid], the values for the EC50 at mouse TGR5 receptor and on human TGR5 receptor were below 100 nM and 100 to 999 nM, respectively.
Take `CN(C(=O)NCCC(=O)O)c1ccc(-c2cc(N3CCC[C@H]3C(=O)NCCc3ccc(C#N)cc3)nc(C(F)(F)F)n2)cc1` [Compound 196, (S)-3-(3-(4-(6-(2-((4-cyanophenethyl)carbamoyl)pyrrolidin-1-yl)-2-(trifluoromethyl)pyrimidin-4-yl)phenyl)-3-methylureido)propanoic acid]: the EC50 at mouse TGR5 receptor was in the range of 100 to 999 nM; at human TGR5 receptor it was 1000 to 30000 nM.
As to `N#Cc1ccc(CCNC(=O)[C@@H]2CCCN2c2cc(N3CCC(CCCC(=O)N[C@@H](CCCNC(=N)N)C(=O)O)CC3)cc(C(F)(F)F)n2)cc1` [Compound 200, (S)-2-(4-(1-(2-((S)-2-((4-cyanophenethyl)carbamoyl)pyrrolidin-1-yl)-6-(trifluoromethyl)pyridin-4-yl)piperidin-4-yl)butanamido)-5-guanidinopentanoic acid], the EC50 at mouse TGR5 receptor and on human TGR5 receptor was below 100 nM each time.
Regarding `N#Cc1ccc(CCNC(=O)[C@@H]2CCCN2c2cc(N3CCC(CCCNC(=O)NCS(=O)(=O)O)CC3)cc(C(F)(F)F)n2)cc1` [Compound 201, (S)-(3-(3-(1-(2-(2-((4-cyanophenethyl)carbamoyl)pyrrolidin-1-yl)-6-(trifluoromethyl)pyridin-4-yl)piperidin-4-yl)propyl)ureido)methanesulfonic acid], the EC50 on mouse TGR5 receptor was below 100 nM; at human TGR5 receptor, 100 to 999 nM.
`N#Cc1ccc(CCNC(=O)[C@@H]2CCCN2c2cc(N3CCC(CCCC(=O)N[C@H](CCCNC(=N)N)C(=O)N[C@H](CCC(=O)O)C(=O)O)CC3)nc(C(F)(F)F)n2)cc1` [Compound 203, (R)-2-((R)-2-(4-(1-(6-((S)-2-((4-cyanophenethyl)carbamoyl)pyrrolidin-1-yl)-2-(trifluoromethyl)pyrimidin-4-yl)piperidin-4-yl)butanamido)-5-guanidino-pentanamido)pentanedioic acid]: the EC50 at mouse TGR5 receptor and at human TGR5 receptor was below 100 nM throughout.
As to `N#Cc1ccc(CCNC(=O)[C@@H]2CCCN2c2cc(-c3ccc(CCC(=O)O)cc3)cc(C(F)(F)F)n2)cc1` [Compound 205, (S)-3-(4-(2-(2-((4-cyanophenethyl)carbamoyl)pyrrolidin-1-yl)-6-(trifluoromethyl)pyridin-4-yl)phenyl)propanoic acid], the EC50 at mouse TGR5 receptor and at human TGR5 receptor was below 100 nM in each case.
